Assays:
[1] = test system: L1210; assay: Antitumor activity was assessed against L1210 tumors in B6D2F1 mouse by inoculation of 10e5 tumor cells through intravenous route and mean death of animals (treated/control) was reported at 100 mg/kg peroral dose; format: functional; settings: route oral
[2] = test system: L1210; assay: Antitumor activity was assessed against L1210 tumors in B6D2F1 mouse by inoculation of 10e5 tumor cells through intravenous route and mean death of animals (treated/control) was reported at 200 mg/kg peroral dose; format: functional; settings: route oral
[3] = test system: L1210; assay: Antitumor activity was assessed against L1210 tumors in B6D2F1 mouse by inoculation of 10e5 tumor cells through intravenous route and mean death of animals (treated/control) was reported at 50 mg/kg peroral dose; format: functional; settings: route oral
[4] = test system: L1210; assay: Antitumor activity was assessed against L1210 tumors in B6D2F1 mouse by inoculation of 10e5 tumor cells through intravenous route and number of Survivors to duration was reported at 10 mg/kg peroral dose; 2/10; format: functional; settings: route oral
[5] = test system: L1210; assay: Antitumor activity was assessed against L1210 tumors in B6D2F1 mouse by inoculation of 10e5 tumor cells through ip route and mean death of animals (treated/control) was reported at 10 mg/kg peroral dose; format: functional; settings: route oral
[6] = test system: L1210; assay: Antitumor activity was assessed against L1210 tumors in B6D2F1 mouse by inoculation of 10e5 tumor cells through ip route and mean death of animals (treated/control) was reported at 20 mg/kg peroral dose; format: functional; settings: route oral
[7] = test system: L1210; assay: Antitumor activity was assessed against L1210 tumors in B6D2F1 mouse by inoculation of 10e5 tumor cells through ip route and mean death of animals (treated/control) was reported at 40 mg/kg peroral dose; format: functional; settings: route oral
[8] = Antitumor activity was assessed against TLX5 tumors in CBA/CA mouse by inoculation of 2 x 10e5 tumor cells through subcutaneous route and number of Survivors to duration was reported at 20 mg/kg iv dose; 1/5; format: functional
[9] = Antitumor activity was assessed against TLX5 tumors in CBA/CA mouse by inoculation of 2 x 10e5 tumor cells through subcutaneous route and number of Survivors to duration was reported at 40 mg/kg iv dose; 5/5; format: functional
[10] = Antitumor activity was assessed against TLX5 tumors in CBA/CA mouse by inoculation of 2 x 10e5 tumor cells through subcutaneous route and mean death of animals (treated/control) was reported at 80 mg/kg iv dose; format: functional
[11] = Antitumor activity was assessed against TLX5 tumors in CBA/CA mouse by inoculation of 2 x 10e5 tumor cells through subcutaneous route and mean death of animals (treated/control) was reported at 10 mg/kg iv dose; format: functional
[12] = Antitumor activity was assessed against TLX5 tumors in CBA/CA mouse by inoculation of 2 x 10e5 tumor cells through subcutaneous route and mean death of animals (treated/control) was reported at 20 mg/kg dose; format: functional
[13] = Antitumor activity was assessed against TLX5 tumors in CBA/CA mouse by inoculation of 2 x 10e5 tumor cells through subcutaneous route and mean death of animals (treated/control) was reported at 40 mg/kg iv dose; format: functional
[14] = Antitumor activity was assessed against TLX5 tumors in CBA/CA mouse by inoculation of 2 x 10e5 tumor cells through subcutaneous route and mean death of animals (treated/control) was reported at 5 mg/kg dose; format: functional
[15] = test system: L1210; assay: Antitumor activity was assessed against L1210 tumors in B6D2F1 mouse by inoculation of 10e5 tumor cells through intraperitoneal route and number of Survivors to duration was reported at 40 mg/kg peroral dose; 2/10; settings: route oral
[16] = test system: L1210; assay: Antitumor activity was assessed against L1210 tumors in B6D2F1 mouse by inoculation of 10e5 tumor cells through intraperitoneal route and number of Survivors to duration was reported at 20 mg/kg peroral dose; 10/10; settings: route oral
[17] = test system: L1210; assay: Antitumor activity was assessed against L1210 tumors in B6D2F1 mouse by inoculation of 10e5 tumor cells through iv route and mean death of animals (treated/control) was reported at 50 mg/kg po dose; format: functional
[18] = test system: L1210; assay: Antitumor activity was assessed against L1210 tumors in B6D2F1 mouse by inoculation of 10e5 tumor cells through iv route and mean death of animals (treated/control) was reported at 100 mg/kg po dose; format: functional
[19] = test system: L1210; assay: Antitumor activity was assessed against L1210 tumors in B6D2F1 mouse by inoculation of 10e5 tumor cells through iv route and mean death of animals (treated/control) was reported at 200 mg/kg po dose; format: functional
[20] = test system: L1210; assay: Antitumor activity was assessed against L1210 tumors in B6D2F1 mouse by inoculation of 10e5 tumor cells through iv route and number of Survivors to duration was reported at 10 mg/kg peroral dose; 1/7; format: functional; settings: route oral
[21] = test system: L1210; assay: Antitumor activity was assessed against L1210 tumors in B6D2F1 mouse by inoculation of 10e5 tumor cells through iv route and number of Survivors to duration was reported at 20 mg/kg peroral dose; 6/7; format: functional; settings: route oral
[22] = test system: L1210; assay: Antitumor activity was assessed against L1210 tumors in B6D2F1 mouse by inoculation of 10e5 tumor cells through iv route and mean death of animals (treated/control) was reported at 5 mg/kg peroral dose; format: functional; settings: route oral
[23] = test system: L1210; assay: Antitumor activity was assessed against L1210 tumors in B6D2F1 mouse by inoculation of 10e5 tumor cells through iv route and mean death of animals (treated/control) was reported at 10 mg/kg peroral dose; format: functional; settings: route oral
[24] = test system: L1210; assay: Antitumor activity was assessed against L1210 tumors in B6D2F1 mouse by inoculation of 10e5 tumor cells through iv route and mean death of animals (treated/control) was reported at 2.5 mg/kg peroral dose; format: functional; settings: route oral
[25] = test system: L1210; assay: Antitumor activity was assessed against L1210 tumors in B6D2F1 mouse by inoculation of 10e5 tumor cells through iv route and mean death of animals (treated/control) was reported at 20 mg/kg peroral dose; format: functional; settings: route oral
[26] = Antitumor activity was assessed against TLX5 tumors in CBA/CA mouse by inoculation of 2 x 10e5 tumor cells through sc route and mean death of animals (treated/control) was reported at 20 mg/kg dose; format: functional; settings: route subcutaneous
[27] = Antitumor activity was assessed against TLX5 tumors in CBA/CA mouse by inoculation of 2 x 10e5 tumor cells through sc route and mean death of animals (treated/control) was reported at 40 mg/kg dose; format: functional; settings: route subcutaneous
[28] = Antitumor activity was assessed against TLX5 tumors in CBA/CA mouse by inoculation of 2 x 10e5 tumor cells through sc route and mean death of animals (treated/control) was reported at 5 mg/kg dose; format: functional; settings: route subcutaneous
[29] = Antitumor activity was assessed against TLX5 tumors in CBA/CA mouse by inoculation of 2 x 10e5 tumor cells through sc route and number of Survivors to duration was reported at 20 mg/kg ip dose; 5/5; format: functional; settings: route subcutaneous
[30] = Antitumor activity was assessed against TLX5 tumors in CBA/CA mouse by inoculation of 2 x 10e5 tumor cells through sc route and mean death of animals (treated/control) was reported at 10 mg/kg dose; format: functional; settings: route subcutaneous
[31] = test system: L1210; assay: Antitumor activity was assessed against L1210 tumors in B6D2F1 mouse by inoculation of 10e5 tumor cells through iv route and mean death of animals (treated/control) was reported at 40 mg/kg po dose; format: functional
[32] = test system: L1210; assay: Antitumor activity was assessed against L1210 tumors in B6D2F1 mouse by inoculation of 10e5 tumor cells through iv route and mean death of animals (treated/control) was reported at 80 mg/kg po dose; format: functional
[33] = test system: L1210; assay: Antitumor activity was assessed against L1210 tumors in B6D2F1 mouse by inoculation of 10e5 tumor cells through iv route and mean death of animals (treated/control) was reported at 160 mg/kg po dose; format: functional
[34] = Antitumor activity was assessed against TLX5 tumors in CBA/CA mouse by inoculation of 2 x 10e5 tumor cells through subcutaneous route and mean death of animals (treated/control) was reported at 10 mg/kg ip dose; format: functional
[35] = Antitumor activity was assessed against TLX5 tumors in CBA/CA mouse by inoculation of 2 x 10e5 tumor cells through subcutaneous route and mean death of animals (treated/control) was reported at 160 mg/kg dose; format: functional
[36] = Antitumor activity was assessed against TLX5 tumors in CBA/CA mouse by inoculation of 2 x 10e5 tumor cells through subcutaneous route and mean death of animals (treated/control) was reported at 20 mg/kg ip dose; format: functional
[37] = Antitumor activity was assessed against TLX5 tumors in CBA/CA mouse by inoculation of 2 x 10e5 tumor cells through subcutaneous route and mean death of animals (treated/control) was reported at 40 mg/kg dose; format: functional
[38] = Antitumor activity was assessed against TLX5 tumors in CBA/CA mouse by inoculation of 2 x 10e5 tumor cells through subcutaneous route and mean death of animals (treated/control) was reported at 80 mg/kg dose; format: functional

O=c1n(CCCl)nnc2c([N+](=O)[O-])cnn12
T/C [1]: 100% | T/C [2]: 101% | T/C [3]: 101%

CNC(=O)c1ncn2c(=O)n(CCCl)nnc12
Survivors [4]: 2 | T/C [5]: >192% | T/C [6]: >453% | T/C [7]: >215% | Survivors [8]: 1 | Survivors [9]: 5 | T/C [10]: 72% | T/C [11]: 133% | T/C [12]: >254% | T/C [13]: >555% | T/C [14]: 104% | Survivors [15]: 2 | Survivors [16]: 10

CC(C)c1nc(C(N)=O)c2nnn(CCCl)c(=O)n12
T/C [17]: 100% | T/C [18]: 104% | T/C [19]: 137%

O=c1n(CCCl)nnc2c([N+](=O)[O-])ncn12
T/C [1]: 98% | T/C [2]: 98% | T/C [3]: 98%

NS(=O)(=O)c1ncn2c(=O)n(CCCl)nnc12
Survivors [20]: 1 | Survivors [21]: 6 | T/C [22]: 207% | T/C [23]: >376% | T/C [24]: 136% | T/C [25]: >605% | T/C [26]: >476% | T/C [27]: 119% | T/C [28]: 121% | Survivors [29]: 5 | T/C [30]: 160%

CCCCc1nc(C(N)=O)c2nnn(CCCl)c(=O)n12
T/C [31]: 100% | T/C [32]: 113% | T/C [33]: 147%

N#Cc1ncn2c(=O)n(CCCl)nnc12
T/C [34]: 96% | T/C [35]: 80% | T/C [36]: 102% | T/C [37]: 102% | T/C [38]: 104%
